From PMC7112222, “Investigation of pyrimidine nucleoside analogues as chemical probes to assess compound effects on the proliferation of Trypanosoma cruzi intracellular parasites” (PLoS Neglected Tropical Diseases, 2020)
Several values for one entry are separate records, joined by “and”; a condition that tells them apart may be missing. Equal values may be shown once. Read-outs that look alike come from different tables or passages of the source.

Assays:
3T3 cells = test: Image-based assay, effect on 3T3 host cells; type: cell-based
Experimental: Parasites and host cells were maintained as outlined previously. Briefly, host 3T3 fibroblasts (ATCC, CCL-92) were grown in RPMI medium (Thermo Fisher Scientific, USA) with no phenol red, supplemented with 10% FBS (Thermo Fisher Scientific, USA) and incubated at 37°C in 5% CO2. Host cells were harvested at 70% confluency and were split every 2–3 days in 175 cm^2 flasks. 3T3 cells were cultured up to passage 7 as contact inhibition was reduced or lost at higher passages. Prior to infection with T. cruzi trypomastigotes, host cells were seeded at 1.2 x 10^6 cells in 75 cm^2 or 4 x 10^5 cells in 25 cm^2 flasks and grown for 24 hours before parasite addition. Parasites were added at a multiplicity of infection (MOI) of 10:1 and incubated for 24 hours before non-infected trypomastigotes were washed off the host cell bed with PBS supplemented with Ca^2+ and Mg^2+ (Thermo Fisher Scientific, USA). Incubation was continued for a further 3 days, until tissue culture trypomastigotes began to egress from host cells. Egressed parasites were used for assays or to continue the infective life cycle in vitro.
[…] Briefly, 14-point serial dilutions of the compounds in 100% DMSO were prepared and then further diluted in sterile water at a ratio of 1:21 compound: water. Five microliters of the diluted compounds were added to wells of T. cruzi infected host cells, using a MiniTrak compound handling device (Perkin Elmer, USA) with final concentrations in the plate ranging from 183 μM to 4.6 x 10^−4 μM. All experiments were performed with two separate biological replicates.
Image analysis was performed with a script developed in Columbus software (CHEMICAL LABEL INCORPORATION SCRIPT). Control wells were also imaged at an increased, 60x magnification to show the distribution of staining and the structure of the parasites within host cells. Eight background control wells consisted of infected host cells, fixed and exposed to Hoechst and the click chemistry cocktail, without the addition of the chemical probe EdU. […] The percentage activity of compounds against parasite number / infected cells (identified with Hoechst) was calculated against a positive control of 12 μM of NFX for the parasite and 30 μM of PURO the host cells; and a negative control of 0.47% DMSO. All images taken were not modified and were taken on an Opera, confocal image-based reader.

HEK293 cells [1] = test: Redox-based assay to assess HEK293 viability; type: cell-based, human; settings: Homo sapiens, HEK293, 48 hours exposure
Experimental: To determine the effect of the nucleoside analogues against a replicating mammalian cell line, analogues were tested against HEK293 cells, utilising a REDOX-based metabolic assay to assess cell viability as previously described. […] Experiments were performed over two biological replicates.

T. cruzi amastigote DNA = test: Incorporation of pyrimidine nucleoside analogues into T. cruzi amastigote DNA (click chemistry, colocalisation with Hoechst); type: cell-based, Trypanosoma cruzi
Experimental: T. cruzi infected 3T3 fibroblasts were initially exposed to nucleoside analogues for 48 hours at concentrations ranging from 73 μM to 1.8 x10^-4 μM. Host cell, parasite and compound additions were carried out as previously described. Cells were then stained using a click chemistry azide cocktail, followed by Hoechst to identify nuclear material, as previously reported. The freshly prepared azide cocktail consisted of a final concentration of 5 μM of Alexa Fluor 488 azide (Thermo Fisher Scientific, USA), 1 mM copper sulfate (Sigma Aldrich, USA) and 100 mM sodium ascorbate (Sigma Aldrich, USA), in DPBS. Wells were imaged on an Opera image-based reader (Perkin Elmer, USA) at 20x magnification with 405 nm (defined as Hoechst channel) and 488 nm (defined as Alexa 488 channel) lasers using filter sets/bandwidth (emission) of 450/50 nm and 540/75 nm, respectively. To determine nucleoside analogue incorporation into T. cruzi amastigote DNA, a script was developed utilising the Columbus (PerkinElmer, USA) image-based analysis and data handling platform (CHEMICAL LABEL INCORPORATION SCRIPT). Nucleoside analogues were also tested for DNA incorporation following 2, 4 and 24 hours exposure, at the same concentrations. All experiments were performed in duplicate. The colocalisation of nucleoside analogues and Hoechst (replicating parasites) at each time point (48, 4 and 2 hours) was compared using GraphPad Prism 5.
A CHEMICAL LABEL INCORPORATION SCRIPT developed in Columbus firstly identified Hoechst stained parasites within host cells by spot analysis, utilizing the same building block analysis as we had previously developed to determine T. cruzi infected cells. The physical definition of amastigote DNA was identified by Hoechst, with the only modification being that as there was no cytoplasmic marker, thus segmentation borders in the Hoechst channel were applied, which effectively separated host cells (Fig 2). Further building blocks were added to calculate the intensity of Alexa Fluor 488 within the spots identified by Hoechst, in infected cells. This script was first applied to images to determine the mean fluorescence intensity in the Alexa 488 channel of Hoechst identified parasites, without the addition of the chemical label. The mean plus three times the standard deviation of this intensity was used to define values above background, thus the minimum intensity above background required to identify parasite DNA which successfully incorporated the chemical label. An input box was incorporated into the script, in which this minimum intensity above background was entered. Parameters of the developed script, “CHEMICAL LABEL INCORPORATION” are shown in S1 Table.
• Number of T. cruzi amastigote infected cells (≥5 parasites per cell, identified with Hoechst). • Number of Hoechst identified T. cruzi parasites (in infected cells). • Number of parasites incorporating chemical label (T. cruzi parasites with Alexa 488 intensity above background, in infected cells). • % chemical label incorporation. Alexa 488 spots in infected cells (above background) NO / Hoechst spots in infected cells NO *100 = Percentage colocalisation; where NO = number of objects. • Number of host cells.

[2] = system: T. cruzi intracellular amastigotes; test: Image-based assay of the number of T. cruzi infected cells (intracellular amastigotes in 3T3 host cells); type: cell-based, Trypanosoma cruzi; settings: 2 and 4 hour exposures; 73 μM
HEK293 cells [3] = settings: read-out: IC50 value, cytotoxicity against HEK293 cells; 72 hours exposure; cited from earlier work

C#Cc1cn([C@H]2C[C@H](O)[C@@H](CO)O2)c(=O)[nH]c1=O [EdU, 5-ethynyl-2′-deoxy-uridine]
activity against host cells after short exposure (3T3 cells; 2 and 4 hour exposures, 73 μM): less than 20% | Host cell 3T3 IC50 value 48 h (3T3 cells; 48 h, highest test concentration 183 μM): NA (NA = ≤50% activity at the highest concentration tested and an IC50 value could not be determined) | activity against 3T3 cells in the image-based assay (3T3 cells; 48 hours): < 20% | IC50 (HEK293 cells [1]; highest test concentration 87 μM, EdU value estimated, relative to Emax plateau of 57%): 670 ± 260 nM | Emax (HEK293 cells [1]; read-out: plateau of activity (Emax) against HEK293 cells): 57% | % incorporation into T. cruzi DNA (T. cruzi amastigote DNA; 2 hours, 1.8 μM): 75 ± 3.6% | % of Hoechst defined T. cruzi cells with incorporation (T. cruzi amastigote DNA; 4 hours, 0.37 μM): 89 ± 4.8% | % of cells with incorporation (T. cruzi amastigote DNA; 48 hours exposure, 0.018 μM): 72 ± 1.09% | % of cells containing Alexa Fluor 488 labelled DNA (incorporation) (T. cruzi amastigote DNA; 48 hours exposure, 0.037 μM): 93.1 ± 2.8% | highest incorporation (T. cruzi amastigote DNA; 48 hours exposure, 0.073 μM): 94 ± 2.5% and 94% | incorporation into T. cruzi DNA following 48 hours incubation (in words) (T. cruzi amastigote DNA; 48 hours incubation): incorporated | activity against T. cruzi amastigote growth after short exposure [2]: less than 20% | IC50 (HEK293 cells [3]): 60 ± 43 nM
